# Data: patent publication US8420569B2, “Pesticidal mixtures” (BASF SE, priority 2006, dated 2013)
# Experiments:
# Assay type in all cases: in vivo
# [1] = system: vetch aphid (Megoura viciae); test: control of vetch aphid through contact or systemic means, broad bean leaf disks in 24-well microtiter plates; settings: sprayed on leaf disks, 5 days, mortality and fecundity
# Procedure: (§1) The analysis of synergism or antagonism between the mixtures or compositions was determined using Colbys equation.
# For evaluating control of vetch aphid (Megoura viciae) through contact or systemic means the test unit consisted of 24-well-microtiter plates containing broad bean leaf disks.
# The compounds or mixtures were formulated using a solution containing 75% water and 25% DMSO. Different concentrations of formulated compounds or mixtures were sprayed onto the leaf disks at 2.5 μl, using a custom built micro atomizer, at two replications.
# (§2) For experimental mixtures in these tests identical volumes of both mixing partners at the desired concentrations respectively, were mixed together.
# After application, the leaf disks were air-dried and 5-8 adult aphids placed on the leaf disks inside the microtiter plate wells. The aphids were then allowed to suck on the treated leaf disks and incubated at 23+1° C., 50+5% RH for 5 days. Aphid mortality and fecundity was then visually assessed.
# In this test the compound 1-2, and N-(3′,4′-dichloro-5-fluorobiphenyl-2-yl)-3-difluoro-methyl-1-methylpyrazole-4-carboxamide (compound 2.1), and 5-chloro-7-(4-methyl-piperidin-1-yl)-6-(2,4,6-trifluorophenyl)-[1,2,4]triazolo[1,5-a]pyrimidine (compound 2.2) were used.
# [2] = system: green peach aphid (Myzus persicae); test: control of green peach aphid through systemic means, artificial diet under membrane in 96-well microtiter plates; settings: pipetted into aphid diet, 3 days, mortality and fecundity
# Procedure: as §1
# For evaluating control of green peach aphid (Myzus persicae) through systemic means the test unit consisted of 96-well-microtiter plates containing liquid artificial diet under an artificial membrane.
# The compounds or mixtures were formulated using a solution containing 75% water and 25% DMSO. Different concentrations of formulated compounds or mixtures were pipetted into the aphid diet, using a custom built pipetter, at two replications.
# as §2
# After application, 5 to 8 adult aphids were placed on the artificial membrane inside the microtiter plate wells. The aphids were then allowed to suck on the treated aphid diet and incubated at 23+1° C., 50+5% RH for 3 days. Aphid mortality and fecundity was then visually assessed.
# In this test the compound 1-2, and 5-chloro-7-(4-methylpiperidin-1-yl)-6-(2,4,6-trifluoro-phenyl)-[1,2,4]triazolo[1,5-a]pyrimidine (compound 2.2) and N-[2-(1,1,2,3,3,3-hexa-fluoropropoxy)-phenyl]-3-difluoromethyl-1-methyl-1H-pyrazole-4-carboxamide (compound 3.1) were used.
# [3] = system: boll weevil (Anthonomus grandis); test: control of boll weevil, insect diet with eggs in 24-well microtiter plates; settings: sprayed onto insect diet, 5 days, egg and larval mortality
# Procedure: as §1
# For evaluating control of boll weevil (Anthonomus grandis) the test unit consisted of 24-well-microtiter plates containing an insect diet and 20-30 A. grandis eggs.
# The compounds or mixtures were formulated using a solution containing 75% water and 25% DMSO. Different concentrations of formulated compounds or mixtures were sprayed onto the insect diet at 20 μl, using a custom built micro atomizer, at two replications.
# as §2
# After application, microtiter plates were incubated at 23+1° C., 50+5% RH for 5 days. Egg and larval mortality was then visually assessed.
# In this test the compound I-2 and N-[2-(1,1,2,3,3,3-hexafluoropropoxy)-phenyl]-3-difluoromethyl-1-methyl-1H-pyrazole-4-carboxamide (compound 3.1), and N-(3′,4′,5′-trifluorobiphenyl-2-yl)-1-methyl-3-difluoromethyl-1H-pyrazole-4-carboxamide (compound 3.2) were used.
smiles,measurement,setting,value
"Cn1cc(C(=O)Nc2ccc(F)cc2-c2ccc(Cl)c(Cl)c2)c(C(F)F)n1 [2.1, N-(3′,4′-dichloro-5-fluorobiphenyl-2-yl)-3-difluoro-methyl-1-methylpyrazole-4-carboxamide]",Average Control %,[1]; 1000 ppm,0%
"CC1CCN(c2c(-c3c(F)cc(F)cc3F)c(Cl)nc3ncnn23)CC1 [2.2, 5-chloro-7-(4-methyl-piperidin-1-yl)-6-(2,4,6-trifluorophenyl)-[1,2,4]triazolo[1,5-a]pyrimidine]",Average Control %,[1]; 40 ppm,0%
same,Average Control %,[2]; 8 ppm,0%
"Cn1cc(C(=O)Nc2ccccc2OC(F)(F)C(F)C(F)(F)F)c(C(F)F)n1 (stereo not shown) [3.1, N-[2-(1,1,2,3,3,3-hexafluoropropoxy)-phenyl]-3-difluoromethyl-1-methyl-1H-pyrazole-4-carboxamide]",Average Control %,[3]; 40 ppm,0%
same,Average Control %,[2]; 1000 ppm,0%
"Cn1cc(C(=O)Nc2ccccc2-c2cc(F)c(F)c(F)c2)c(C(F)F)n1 [3.2, N-(3′,4′,5′-trifluorobiphenyl-2-yl)-1-methyl-3-difluoromethyl-1H-pyrazole-4-carboxamide]",Average Control %,[3]; 200 ppm,50%
CNC(=O)c1cc(C#N)cc(C)c1NC(=O)c1cc(Br)nn1-c1ncccc1Cl [I-2],Average Control %,[1]; 0.5 ppm,0%
same,Average Control %,[1]; 2.5 ppm,0%
same,Average Control %,[3]; 0.5 ppm,0%
same,Average Control %,[2]; 0.5 ppm,0%
